{"source": "patent US9809562B2", "about": "“NAT10 modulators for treating or preventing laminopathies, aging and cancer” (CAMBRIDGE ENTERPRISE LIMITED, priority 2014, dated 2017)", "key": {"[1]": {"system": "cells derived from patients with Emery-Dreifuss muscular dystrophy (EDMD)", "assay": "γH2AX in Emery-Dreifuss muscular dystrophy cells", "format": "cell-based, human", "text": "FIG. 12: Remodelin improves global cellular fitness of HGPS cells. A) NAT10 depletion in normal fibroblasts and HGPS AG11498 cells observed by western blotting, and showing that siNAT10 has no effect on Lamin A/C expression and processing. B) IF images showing nuclear shape improvement and decreased numbers of γH2AX foci in HGPS cells upon Remodelin treatment. Scale bars: 10 μm. C) Western Blotting analysis showing that Remodelin decreases γH2AX levels in both HGPS cell lines tested. D) IF images showing nuclear shape improvement and decreased intensity of γH2AX staining in Emery-Dreifuss muscular dystrophy cells (EDMD) upon Remodelin treatment. Scale bars: 10 μm. E) Western Blotting analysis showing that Remodelin decreases γH2AX levels in EDMD. F) Western blotting analysis showing the effect of Remodelin on the p53 and DNA damage signalling pathways in HGPS AG11498 cells. G) Representative IF images of H3K9me3 or SUN1 patterns quantified in H). Scale bars: 20 μm. […]\nTotal cell extracts were prepared by scraping cells in SDS lysis buffer (4% SDS, 20% glycerol, and 120 mM Tris-HCl, pH 6.8), boiling for 5 minutes at 95° C., followed by 10 strokes through a 25-gauge needle. […] Detection and quantification was performed with an imager (Odyssey; LI-COR Biosciences). […]"}, "[2]": {"system": "siLMNA cells and HGPS cells", "assay": "Microtubules regrowth assay", "format": "cell-based, human", "conditions": "t=15 minutes after cold depolymerization, 5 to 10 μM Remodelin 16 hours", "protocol": "48 hours after siRNA transfections, microtubules were depolymerized by cold treatment at 4° C. for 1 hour in cells pre-treated or not with 5 to 10 μM Remodelin for 16 hours. Cold medium was replaced by pre-warmed medium and cells were incubated at 37° C. for 5 or 15 minutes to allow microtubules nucleation and anchorage respectively. Cells were fixed in PFA and stained with anti α-Tubulin antibody as described in the immunofluorescence procedure."}, "[3]": {"system": "prostate 22RV1 cancer cells", "assay": "Matrigel invasion assay", "format": "cell-based, human", "conditions": "50 μM", "protocol": "FIG. 15: Compound 2 inhibits the proliferation, migration and invasion of cancer cells with low Lamin A/C expression. […] C) Quantification of transwell migration assays and matrigel invasion assays from the indicated low expressing cancer cell lines after treatment with 50 μM of compound 2."}, "[4]": {"system": "LMNA KO U2OS cells", "assay": "Global protein translation by HPG incorporation (FACS), LMNA KO", "format": "cell-based, human", "conditions": "24 h treatment, 1 h HPG", "protocol": "U2OS cells expressing wild type or KO LMNA were treated with Compound 2 for 24 h and incubated for 1 h with the clickable methionine analogue HPG to measure global protein translation. HPG was then clicked with an Alexa fluor 488 and global fluorescence intensity was quantified by FACS on 10 000 cells."}, "[5]": {"system": "HGPS mice (Lmna^G609G/G609G)", "assay": "Survival in mouse model of Hutchinson Gilford progeria syndrome", "format": "in vivo", "conditions": "daily oral dose of 100 mg/kg/day from 3 weeks of age, vs vector only, n=10", "protocol": "Middle panel of FIG. 25: HGPS mice were treated with a daily oral dose of 100 mg/kg/day of Compound 2 from 3 weeks of age and until culled due to >20% body weight loss. […] Right panel of FIG. 25: Global survival of HGPS mice (Lmna^G609G/G609G) treated with vector only (Lmna^G609G/G609G V) or with Compound 2 (Lmna^G609G/G609G2) showing a significant increase of the median survival of mice upon Compound 2 treatment (+25%). Number of mice/group n=10."}, "[6]": {"assay": "Compound concentration in heart and muscles", "format": "in vivo", "conditions": "mice, end of the 14 days oral treatment", "text": "Right panel of FIG. 24: measurement of Compound 2 concentration in heart and muscles of mice treated with the indicated dose, at the end of the 14 days treatment."}, "[7]": {"system": "LMNA knock out (KO) U2OS cell line", "assay": "Cell growth of LMNA KO versus LMNA WT U2OS cells (IncuCyte ZOOM)", "format": "cell-based, human", "conditions": "U2OS, CripR/Cas9 LMNA KO", "text": "LMNA knock out (KO) U2OS cell line was engineered using CripR/Cas9 technology. The sensitivity of LMNA KO cells to Compound 2 was compared to cells expressing wild type LMNA (LMNA WT). Cell growth was monitored automatically over time using an IncuCyte ZOOM®. The results are shown in FIG. 21 which has been split into two graphs for easier reading of the curves."}, "[8]": {"biological_target": "T1, NAT10 (Homo sapiens, UniProt Q9H0A0)", "T1 construct": "endogenous in cells; host or cells: U2OS", "T1 sequence (Q9H0A0 whole entry)": "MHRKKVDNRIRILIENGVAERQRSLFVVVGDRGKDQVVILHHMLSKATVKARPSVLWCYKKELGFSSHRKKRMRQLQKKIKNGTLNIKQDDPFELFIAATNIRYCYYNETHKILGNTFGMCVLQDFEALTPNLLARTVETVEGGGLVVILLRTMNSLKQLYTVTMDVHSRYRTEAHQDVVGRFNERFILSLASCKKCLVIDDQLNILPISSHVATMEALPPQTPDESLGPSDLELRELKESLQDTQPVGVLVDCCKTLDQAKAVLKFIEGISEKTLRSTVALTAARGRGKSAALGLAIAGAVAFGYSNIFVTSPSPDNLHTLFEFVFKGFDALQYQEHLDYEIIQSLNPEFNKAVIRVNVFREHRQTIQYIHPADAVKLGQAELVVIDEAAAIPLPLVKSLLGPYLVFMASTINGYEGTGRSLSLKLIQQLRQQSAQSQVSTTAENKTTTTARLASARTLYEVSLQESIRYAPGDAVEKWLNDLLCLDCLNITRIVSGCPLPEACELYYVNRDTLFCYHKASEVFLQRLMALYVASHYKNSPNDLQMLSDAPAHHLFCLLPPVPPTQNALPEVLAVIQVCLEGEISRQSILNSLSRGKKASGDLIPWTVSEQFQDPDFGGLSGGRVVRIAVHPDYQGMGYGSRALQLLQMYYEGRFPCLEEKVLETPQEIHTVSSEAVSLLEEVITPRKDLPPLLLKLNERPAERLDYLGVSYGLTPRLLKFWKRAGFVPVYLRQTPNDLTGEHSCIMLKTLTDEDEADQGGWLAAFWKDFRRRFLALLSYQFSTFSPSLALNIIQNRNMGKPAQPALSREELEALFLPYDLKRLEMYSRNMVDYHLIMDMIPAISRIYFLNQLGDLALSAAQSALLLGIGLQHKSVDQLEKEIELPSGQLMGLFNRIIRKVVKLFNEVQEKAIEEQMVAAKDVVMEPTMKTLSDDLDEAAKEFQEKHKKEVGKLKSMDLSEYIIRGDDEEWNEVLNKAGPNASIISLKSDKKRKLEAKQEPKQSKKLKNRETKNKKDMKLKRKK", "assay": "Clickable small molecule pull-down from live cells, western blotting", "format": "binding", "conditions": "pre-incubated in live U2OS cells, biotin linker, streptavidin beads", "protocol": "Biotinylated Compound 3 and PEG4 biotinylated Compound A were generated in situ from Compounds 2 and 3, pre-incubated in live cells for 2 h prior to adding commercially available PEG4 carboxamide-6-azidohexanyl biotin and click reagents in cell extracts (used in click-pull-down and western blotting validation).\nClick reaction reagents were added to the cell lysates as follows: 10 μM biotin azide (PEG4 carboxamide-6-Azidohexanyl Biotin, Life Sciences), 10 mM sodium ascorbate (Sigma-Aldrich), 2 mM CuSO4 (Life Sciences). Click reactions were incubated in the dark for 1 hour at 4° C. with rotation. Streptavidin beads were then incubated for 1 hour and samples were eluted and loaded on a gel as described above, before immunoblotting."}}, "note": "Structures can show the parent of a compound that is named as a salt."}
{"smiles": "N#Cc1ccc(-c2csc(NN=C3CCCC3)n2)cc1", "note": "[Compound 1, 4-(4-Cyanophenyl)-2-(2-cyclopentylidenehydrazinyl)thiazole]", "values": [{"measurement": "γH2AX levels in EDMD cells", "setting": "[1]", "result": "decreased levels of γH2AX"}, {"measurement": "anchorage of microtubules to centrosomes", "setting": "[2]", "result": "anchorage of microtubules to centrosomes was clearly affected"}]}
{"smiles": "Clc1ccc(-c2csc(NN=C3CCCC3)n2)cc1", "note": "[Compound 2, 4-(4-Chlorophenyl)-2-(2-cyclopentylidenehydrazinyl)thiazole Hydrochloride Salt]", "values": [{"measurement": "matrigel invasion of 22RV1 cells", "setting": "[3]", "result": "no invasion upon treatment"}, {"measurement": "global protein translation (HPG fluorescence intensity)", "setting": "[4]", "result": "strong reduction of global protein translation"}, {"measurement": "increase of the median survival", "setting": "[5]", "result": "+25%"}, {"measurement": "compound concentration in heart and muscles", "setting": "[6]", "result": "very high concentration of the compound in both heart and muscles"}, {"measurement": "cell growth inhibition of LMNA KO versus LMNA WT cells", "setting": "[7]", "result": "specificity of Compound 2 towards inhibiting cell growth of LMNA KO cells"}]}
{"smiles": "C#CCN(N=C1CCCC1)c1nc(-c2ccc(Cl)cc2)cs1", "note": "[Compound 3, 4-(4-Chlorophenyl)-2-(2-cyclopentylidene-1-(prop-2-yn-1-yl)hydrazinyl)thiazole]", "values": [{"measurement": "retrieval of NAT10 in click pull-down", "setting": "[8]", "result": "specifically retrieved NAT10"}]}
